Laboratory results published in publication PMC8125603, “Species-Specific Regulation of TRPM2 by PI(4,5)P2 via the Membrane Interfacial Cavity” (International Journal of Molecular Sciences, 2021).

Key:
[1] = target: T1, hsTRPM2 (Homo sapiens, UniProt O94759); test: inside-out patch clamp, HEK-293 cells, -60 mV, dose-response of current activation; type: biochemical
T1 construct: gene TRPM2; full-length wild-type cDNA in modified pIRES-hrGFP-2a, transient in HEK-293 cells; homotetramer; inside-out patches (C-terminal 3xHA tag only for surface expression tests)
T1 sequence (O94759 whole entry): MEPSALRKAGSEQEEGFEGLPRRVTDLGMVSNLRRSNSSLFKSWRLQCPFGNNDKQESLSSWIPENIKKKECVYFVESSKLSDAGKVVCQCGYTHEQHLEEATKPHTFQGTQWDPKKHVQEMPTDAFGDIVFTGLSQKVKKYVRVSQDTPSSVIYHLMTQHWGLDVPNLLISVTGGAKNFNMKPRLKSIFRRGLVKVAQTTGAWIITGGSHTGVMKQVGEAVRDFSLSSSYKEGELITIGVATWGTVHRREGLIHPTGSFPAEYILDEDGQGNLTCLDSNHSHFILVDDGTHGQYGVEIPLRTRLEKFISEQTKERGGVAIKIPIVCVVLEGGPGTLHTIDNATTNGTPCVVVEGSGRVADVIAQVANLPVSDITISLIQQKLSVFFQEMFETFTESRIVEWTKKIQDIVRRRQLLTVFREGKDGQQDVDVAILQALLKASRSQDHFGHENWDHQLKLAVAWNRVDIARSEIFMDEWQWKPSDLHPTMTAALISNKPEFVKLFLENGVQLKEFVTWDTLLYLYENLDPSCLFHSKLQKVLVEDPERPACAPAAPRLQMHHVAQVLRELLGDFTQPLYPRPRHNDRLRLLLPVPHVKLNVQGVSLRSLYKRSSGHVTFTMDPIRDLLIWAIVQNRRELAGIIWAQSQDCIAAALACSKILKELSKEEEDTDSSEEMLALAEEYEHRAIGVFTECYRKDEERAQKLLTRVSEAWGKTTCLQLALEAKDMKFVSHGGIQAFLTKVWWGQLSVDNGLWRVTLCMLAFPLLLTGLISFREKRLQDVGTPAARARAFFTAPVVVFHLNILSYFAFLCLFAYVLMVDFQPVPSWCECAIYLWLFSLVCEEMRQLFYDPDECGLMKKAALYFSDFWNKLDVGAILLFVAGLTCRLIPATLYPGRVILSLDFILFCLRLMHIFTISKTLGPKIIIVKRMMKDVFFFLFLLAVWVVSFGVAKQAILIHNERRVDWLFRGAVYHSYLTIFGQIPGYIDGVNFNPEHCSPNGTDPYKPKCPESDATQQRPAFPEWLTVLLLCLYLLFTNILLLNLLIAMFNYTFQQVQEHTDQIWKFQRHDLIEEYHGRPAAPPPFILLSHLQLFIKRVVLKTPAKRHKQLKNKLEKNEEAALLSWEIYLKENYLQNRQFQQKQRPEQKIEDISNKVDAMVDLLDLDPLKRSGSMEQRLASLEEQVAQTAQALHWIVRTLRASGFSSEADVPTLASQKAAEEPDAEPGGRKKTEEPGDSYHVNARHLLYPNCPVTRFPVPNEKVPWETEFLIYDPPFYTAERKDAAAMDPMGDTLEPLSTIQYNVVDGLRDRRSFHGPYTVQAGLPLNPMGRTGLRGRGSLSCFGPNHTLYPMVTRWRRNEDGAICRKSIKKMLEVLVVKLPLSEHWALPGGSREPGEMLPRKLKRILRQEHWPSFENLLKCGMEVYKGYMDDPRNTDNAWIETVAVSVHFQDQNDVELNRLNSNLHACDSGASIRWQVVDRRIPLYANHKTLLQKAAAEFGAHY

[2] = target: T2, nvTRPM2 (Nematostella vectensis, UniProt A7T1N0); test: as above; type: biochemical
T2 construct: gene TRPM2; full-length wild-type cDNA in modified pIRES-hrGFP-2a, transient in HEK-293 cells; homotetramer; inside-out patches (C-terminal 3xHA tag only for surface expression tests)
T2 sequence (A7T1N0 whole entry): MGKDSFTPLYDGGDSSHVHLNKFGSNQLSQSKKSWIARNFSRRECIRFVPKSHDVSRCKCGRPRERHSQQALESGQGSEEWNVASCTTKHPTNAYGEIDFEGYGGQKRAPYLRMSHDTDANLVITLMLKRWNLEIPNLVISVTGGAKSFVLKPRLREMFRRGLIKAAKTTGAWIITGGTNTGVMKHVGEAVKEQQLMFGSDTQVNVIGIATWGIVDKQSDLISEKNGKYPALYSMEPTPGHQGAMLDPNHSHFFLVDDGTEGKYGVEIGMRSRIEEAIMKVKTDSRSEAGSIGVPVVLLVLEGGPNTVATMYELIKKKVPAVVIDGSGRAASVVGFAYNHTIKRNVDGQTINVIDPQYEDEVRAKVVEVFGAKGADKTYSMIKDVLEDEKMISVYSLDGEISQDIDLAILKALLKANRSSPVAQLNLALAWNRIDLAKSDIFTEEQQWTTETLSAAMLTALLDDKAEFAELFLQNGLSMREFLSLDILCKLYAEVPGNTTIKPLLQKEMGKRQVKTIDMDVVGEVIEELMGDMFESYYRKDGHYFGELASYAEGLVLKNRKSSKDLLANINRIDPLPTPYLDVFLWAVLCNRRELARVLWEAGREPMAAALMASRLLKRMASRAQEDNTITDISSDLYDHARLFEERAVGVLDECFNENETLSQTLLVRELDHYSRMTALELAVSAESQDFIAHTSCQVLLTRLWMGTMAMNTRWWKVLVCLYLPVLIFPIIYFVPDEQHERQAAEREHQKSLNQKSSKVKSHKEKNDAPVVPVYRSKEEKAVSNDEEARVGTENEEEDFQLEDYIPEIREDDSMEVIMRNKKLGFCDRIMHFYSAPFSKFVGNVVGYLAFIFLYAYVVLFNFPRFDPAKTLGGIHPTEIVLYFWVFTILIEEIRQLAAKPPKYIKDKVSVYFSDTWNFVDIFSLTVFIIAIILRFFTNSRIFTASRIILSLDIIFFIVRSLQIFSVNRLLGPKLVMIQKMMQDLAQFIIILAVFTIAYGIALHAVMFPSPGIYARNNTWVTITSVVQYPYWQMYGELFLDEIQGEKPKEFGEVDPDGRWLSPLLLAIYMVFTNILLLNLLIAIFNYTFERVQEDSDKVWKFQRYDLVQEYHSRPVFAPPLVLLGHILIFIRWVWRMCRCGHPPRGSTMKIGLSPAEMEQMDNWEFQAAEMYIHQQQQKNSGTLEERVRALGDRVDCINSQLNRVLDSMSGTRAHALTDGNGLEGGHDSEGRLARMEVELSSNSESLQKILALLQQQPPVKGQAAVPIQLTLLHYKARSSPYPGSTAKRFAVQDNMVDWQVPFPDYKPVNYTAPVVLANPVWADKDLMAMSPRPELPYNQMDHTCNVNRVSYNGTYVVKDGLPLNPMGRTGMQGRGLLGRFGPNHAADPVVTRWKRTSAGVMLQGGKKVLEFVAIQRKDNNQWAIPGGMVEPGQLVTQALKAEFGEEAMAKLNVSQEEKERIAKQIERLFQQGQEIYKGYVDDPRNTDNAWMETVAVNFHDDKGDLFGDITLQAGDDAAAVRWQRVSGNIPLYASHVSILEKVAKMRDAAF

- EC50 [1]: 11.9 ± 1.1 µM
- EC50 [2]: 2.1 ± 0.2 µM
Compound: CCCCCCCC(=O)OC[C@H](COP(=O)(O)O[C@@H]1[C@H](O)[C@H](O)[C@@H](OP(=O)(O)O)[C@H](OP(=O)(O)O)[C@H]1O)OC(=O)CCCCCCC [PIP2]
